Results from ChEMBL document CHEMBL5131541, “Structural Feature Analyzation Strategies toward Discovery of Orally Bioavailable PROTACs of Bruton's Tyrosine Kinase for the Treatment of Lymphoma” (J Med Chem, 2022).

Experiments:
[1] = biological target: T1, Tyrosine-protein kinase BTK (Homo sapiens, UniProt Q06187); experiment: Inhibition of BTK (unknown origin)
[2] = AUC (0 to t) in Sprague-Dawley rat at 5 to 10 mg/kg, po administered as cassette dose measured upto 24 hrs by LC-MS analysis; assay type: ADME, organism-based; design: time < 24 hrs, route po; conditions: in vivo, dose 5-10 mg/kg
[3] = Half life in Sprague-Dawley rat at 5 to 10 mg/kg, po administered as cassette dose measured upto 24 hrs by LC-MS analysis; assay type: ADME, organism-based; conditions: in vivo, dose 5-10 mg/kg
[4] = Dose normalized AUC (0 to t) in Sprague-Dawley rat at 5 to 10 mg/kg, po administered as cassette dose measured upto 24 hrs by LC-MS analysis; assay type: ADME, organism-based; conditions: in vivo, dose 5-10 mg/kg
[5] = Tmax in Sprague-Dawley rat at 5 to 10 mg/kg, po administered as cassette dose measured upto 24 hrs by LC-MS analysis; assay type: ADME, organism-based; conditions: in vivo, dose 5-10 mg/kg
[6] = biological target: T1, Tyrosine-protein kinase BTK; experiment: Induction of BTK degradation in human MINO cells incubated for 24 hrs by Western blot; assay type: cell-based; conditions: dose 1-1000 nM, DDE = dose-dependent effect
[7] = Cmax in Sprague-Dawley rat at 5 to 10 mg/kg, po administered as cassette dose measured upto 24 hrs by LC-MS analysis; assay type: ADME, organism-based; design: time < 24 hrs, route po; conditions: in vivo, dose 5-10 mg/kg
JeKo-1 [8] = experiment: cells; conditions: Homo sapiens
JeKo-1 [9] = experiment: cells; conditions: Homo sapiens; remark: listed apart in the source

T1 sequence (Q06187 whole entry): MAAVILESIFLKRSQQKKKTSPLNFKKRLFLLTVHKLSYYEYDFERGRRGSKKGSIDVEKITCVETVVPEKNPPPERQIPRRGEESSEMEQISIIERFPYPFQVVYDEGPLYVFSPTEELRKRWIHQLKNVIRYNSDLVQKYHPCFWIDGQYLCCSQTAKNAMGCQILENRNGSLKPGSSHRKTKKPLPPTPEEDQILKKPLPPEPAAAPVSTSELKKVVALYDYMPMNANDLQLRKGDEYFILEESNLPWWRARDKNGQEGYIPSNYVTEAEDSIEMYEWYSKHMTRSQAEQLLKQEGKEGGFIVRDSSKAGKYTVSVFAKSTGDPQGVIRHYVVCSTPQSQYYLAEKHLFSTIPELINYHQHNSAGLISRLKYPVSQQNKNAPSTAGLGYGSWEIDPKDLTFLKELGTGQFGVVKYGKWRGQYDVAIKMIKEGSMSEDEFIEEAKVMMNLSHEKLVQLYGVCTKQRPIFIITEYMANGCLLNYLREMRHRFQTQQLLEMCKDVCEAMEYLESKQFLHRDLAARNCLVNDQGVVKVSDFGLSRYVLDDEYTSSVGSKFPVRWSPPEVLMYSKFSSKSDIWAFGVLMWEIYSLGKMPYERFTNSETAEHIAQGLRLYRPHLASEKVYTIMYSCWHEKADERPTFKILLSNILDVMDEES

| Structure (SMILES) | IC50 [1] [nM] | AUC(0-t) at 24 h [2] [ng·h/mL] | half-life [3] [h] | AUCt/dose [4] [ng·h/mL/mg] | Tmax [5] [h] | Activity [6] | Cmax [7] [ng/mL] | IC50 (JeKo-1 [8]) [nM] | IC50 (JeKo-1 [9]) [nM] |
| --- | --- | --- | --- | --- | --- | --- | --- | --- | --- |
| Nc1ncnc2c1c(-c1ccc(Oc3ccccc3)cc1)nn2[C@@H]1CCCN(C(=O)C2(C(=O)N3CCN(CC#Cc4ccc5c(c4)CN(C4CCC(=O)NC4=O)C5=O)CC3)CC2)C1 (stereo partly drawn) | 9 | 2530 | 2.3 | 253 | 0.9 | Dde | 782 |  |  |
| O=C1CCC(N2C(=O)c3cccc(N4CCN(C5CCN(CCCCOc6ccc(C(F)(F)F)cc6)CC5)CC4)c3C2=O)C(=O)N1 (stereo not drawn) |  | 1160 | 5.3 | 116 | 4.7 |  | 71 |  |  |
| O=C1CCC(N2Cc3cc(C#CCN4CCN(c5ccc(C(F)(F)F)cc5)CC4)ccc3C2=O)C(=O)N1 (stereo not drawn) |  | 15300 | 4 | 1527 | 6.7 |  | 1050 |  |  |
| Nc1ncnc2c1c(-c1ccc(Oc3ccccc3)cc1)nn2[C@@H]1CCCN(C(=O)CCCCCCC(=O)NCC#CCN2CCN(CC#Cc3ccc4c(c3)CN(C3CCC(=O)NC3=O)C4=O)CC2)C1 (stereo partly drawn) | 9 |  |  |  |  | Dde |  |  |  |
| Nc1ncnc2c1c(-c1ccc(Oc3ccccc3)cc1)nn2[C@@H]1CCCN(C(=O)CCC(=O)NCC#CCN2CCN(CC#Cc3ccc4c(c3)CN(C3CCC(=O)NC3=O)C4=O)CC2)C1 (stereo partly drawn) | 9 |  |  |  |  | Dde |  |  |  |
| O=C1CCC(N2Cc3cc(C#CCN4CCN(CC#CCOc5ccc(C(F)(F)F)cc5)CC4)ccc3C2=O)C(=O)N1 (stereo not drawn) |  | 15200 | 6 | 1524 | 8.3 |  | 1550 |  |  |
| Nc1ncnc2c1c(-c1ccc(Oc3ccccc3)cc1)nn2[C@@H]1CCCN(C(=O)[C@H]2CCCC[C@H]2C(=O)N2CCN(CC#Cc3ccc4c(c3)CN(C3CCC(=O)NC3=O)C4=O)CC2)C1 (stereo partly drawn) | 9 | 58 | 2 | 6 | 0.5 | Dde | 29 |  |  |
| Nc1ncnc2c1c(-c1ccc(Oc3ccccc3)cc1)nn2[C@@H]1CCCN(C(=O)/C=C/C(=O)N2CCN(CC#Cc3ccc4c(c3)CN(C3CCC(=O)NC3=O)C4=O)CC2)C1 (stereo partly drawn) | 9 |  |  |  |  | Dde |  | 4960 | 296 |
| O=C1CCC(N2C(=O)c3cccc(NCCN4CCN(CC#CCOc5ccc(C(F)(F)F)cc5)CC4)c3C2=O)C(=O)N1 (stereo not drawn) |  | 328 | 17.7 | 65 | 3.7 |  | 24 |  |  |
| Nc1ncnc2c1c(-c1ccc(Oc3ccccc3)cc1)nn2[C@@H]1CCCN(C(=O)C2(C(=O)NCC#CCN3CCN(CC#Cc4ccc5c(c4)CN(C4CCC(=O)NC4=O)C5=O)CC3)CC2)C1 (stereo partly drawn) | 9 | 145 | 1.7 | 15 | 0.3 | Dde | 77 |  |  |
| Nc1ncnc2c1c(-c1ccc(Oc3ccccc3)cc1)nn2[C@@H]1CCCN(C(=O)CCCCC(=O)NCC#CCN2CCN(CC#Cc3ccc4c(c3)CN(C3CCC(=O)NC3=O)C4=O)CC2)C1 (stereo partly drawn) | 9 |  |  |  |  | Dde |  |  |  |
| Nc1ncnc2c1c(-c1ccc(Oc3ccccc3)cc1)nn2[C@@H]1CCCN(C(=O)/C=C/C(=O)NCC#CCN2CCN(CC#Cc3ccc4c(c3)CN(C3CCC(=O)NC3=O)C4=O)CC2)C1 (stereo partly drawn) | 9 | 20 | 1.5 | 2 | 0.6 | Dde | 15 |  |  |
| Nc1ncnc2c1c(-c1ccc(Oc3ccccc3)cc1)nn2[C@@H]1CCCN(C(=O)[C@H]2CC[C@H](C(=O)NCC#CCN3CCN(CC#Cc4ccc5c(c4)CN(C4CCC(=O)NC4=O)C5=O)CC3)CC2)C1 (stereo partly drawn) | 9 | 112 | 1.5 | 11 | 0.5 | Dde | 69 |  |  |
| O=C1CCC(N2Cc3c(OC4CN(CC#CCN5CCN(c6ccc(C(F)(F)F)cc6)CC5)C4)cccc3C2=O)C(=O)N1 (stereo not drawn) |  | 49 | 5.7 | 128 | 0.3 |  | 232 |  |  |
| O=C1CCC(N2Cc3cc(CCCN4CCN(CC#CCOc5ccc(C(F)(F)F)cc5)CC4)ccc3C2=O)C(=O)N1 (stereo not drawn) |  | 236 | 2.2 | 47 | 0.3 |  | 99 |  |  |
| O=C1CCC(N2C(=O)c3cccc(N4CCN(CC#CCN5CCN(c6ccc(C(F)(F)F)cc6)CC5)CC4)c3C2=O)C(=O)N1 (stereo not drawn) |  | 1720 | 10.3 | 172 | 0.9 |  | 194 |  |  |
| O=C1CCC(N2C(=O)c3ccc(N4CCN(C5CN(CC#CCOc6ccc(C(F)(F)F)cc6)C5)CC4)cc3C2=O)C(=O)N1 (stereo not drawn) |  | 7080 | 8.6 | 708 | 1.2 |  | 1050 |  |  |
| Nc1ncnc2c1c(-c1ccc(Oc3ccccc3)cc1)nn2[C@@H]1CCCN(C(=O)[C@H]2CC[C@H](C(=O)N3CCN(CC#Cc4ccc5c(c4)CN(C4CCC(=O)NC4=O)C5=O)CC3)CC2)C1 (stereo partly drawn) | 9 | 24 | 0.8 | 2 | 0.6 | Dde | 16 | > 20000 | 1940 |
| O=C1CCC(N2C(=O)c3ccc(N4CCN(C5CN(CCCCOc6ccc(C(F)(F)F)cc6)C5)CC4)cc3C2=O)C(=O)N1 (stereo not drawn) |  | 2810 | 3.4 | 281 | 10 |  | 223 |  |  |
| O=C1CCC(N2C(=O)c3cccc(N4CCN(CC5CCN(CC#CCOc6ccc(C(F)(F)F)cc6)CC5)CC4)c3C2=O)C(=O)N1 (stereo not drawn) |  | 4350 | 8.9 | 435 | 11 |  | 419 |  |  |
| O=C1CCC(N2C(=O)c3cccc(N4CCN(CC5CCN(CCCCOc6ccc(C(F)(F)F)cc6)CC5)CC4)c3C2=O)C(=O)N1 (stereo not drawn) |  | 1130 | 112 | 113 | 10.7 |  | 68 |  |  |
| O=C1CCC(N2Cc3ccc(C#CCN4CCN(CC#CCOc5ccc(C(F)(F)F)cc5)CC4)cc3C2=O)C(=O)N1 (stereo not drawn) |  | 7960 |  | 796 | 8.5 |  | 1250 |  |  |
| O=C1CCC(N2C(=O)c3ccc(N4CCN(CC#CCN5CCN(c6ccc(C(F)(F)F)cc6)CC5)CC4)cc3C2=O)C(=O)N1 (stereo not drawn) |  | 1940 | 14 | 194 | 2.8 |  | 200 |  |  |
| O=C1CCC(N2C(=O)c3cccc(N4CCN(C5CCN(CC#CCOc6ccc(C(F)(F)F)cc6)CC5)CC4)c3C2=O)C(=O)N1 (stereo not drawn) |  | 142 | 9.7 | 143 | 1.2 |  | 269 |  |  |
